Assay results from patent US20050095240A1, “NaCT as a target for lifespan expansion and weight reduction” (Medical College of Georgia Research, priority 2002, published 2005).
Like-named read-outs stand apart in the source and are kept apart here.

Assays:
rat NaCT [1] = molecular target: T1, rat NaCT (Rattus norvegicus, UniProt Q8CJ44); experiment: Uptake via rat NaCT expressed in HRPE cells; assay type: cell-based
T1 sequence (Q8CJ44 1-572): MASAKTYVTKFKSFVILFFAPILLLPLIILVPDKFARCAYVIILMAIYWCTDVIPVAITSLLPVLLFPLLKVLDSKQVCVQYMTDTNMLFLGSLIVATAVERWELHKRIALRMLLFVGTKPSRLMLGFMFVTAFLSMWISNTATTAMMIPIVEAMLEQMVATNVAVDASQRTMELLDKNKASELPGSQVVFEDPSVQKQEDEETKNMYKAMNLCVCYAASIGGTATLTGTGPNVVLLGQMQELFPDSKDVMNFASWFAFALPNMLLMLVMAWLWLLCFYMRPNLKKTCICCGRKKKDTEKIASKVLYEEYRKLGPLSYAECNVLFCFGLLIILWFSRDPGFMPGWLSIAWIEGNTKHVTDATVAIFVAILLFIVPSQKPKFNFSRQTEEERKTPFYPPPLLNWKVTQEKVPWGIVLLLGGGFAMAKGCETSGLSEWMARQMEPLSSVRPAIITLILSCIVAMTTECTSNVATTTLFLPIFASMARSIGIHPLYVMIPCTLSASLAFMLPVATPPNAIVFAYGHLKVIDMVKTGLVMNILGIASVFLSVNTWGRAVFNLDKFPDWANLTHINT

human NaCT = human NaCT (Homo sapiens, UniProt Q86YT5); experiment: Uptake via human NaCT expressed in HRPE cells; assay type: cell-based
Sequence of human NaCT (Q86YT5 whole entry): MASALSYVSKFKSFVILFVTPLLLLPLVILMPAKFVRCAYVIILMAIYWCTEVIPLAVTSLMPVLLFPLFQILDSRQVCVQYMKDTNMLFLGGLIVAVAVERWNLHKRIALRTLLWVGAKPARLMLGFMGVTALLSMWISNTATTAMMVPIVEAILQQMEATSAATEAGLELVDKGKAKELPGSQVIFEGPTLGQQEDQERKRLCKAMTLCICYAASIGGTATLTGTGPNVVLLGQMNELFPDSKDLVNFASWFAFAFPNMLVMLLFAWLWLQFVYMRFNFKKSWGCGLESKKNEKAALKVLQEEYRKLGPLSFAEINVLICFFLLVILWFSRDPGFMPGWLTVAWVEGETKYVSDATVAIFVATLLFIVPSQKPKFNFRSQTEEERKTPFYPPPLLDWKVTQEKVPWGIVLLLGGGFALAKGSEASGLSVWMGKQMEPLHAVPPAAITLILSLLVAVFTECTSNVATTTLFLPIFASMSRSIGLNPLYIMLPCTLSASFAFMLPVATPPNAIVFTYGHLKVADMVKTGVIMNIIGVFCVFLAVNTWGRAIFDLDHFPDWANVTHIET

mouse NaCT = molecular target: T2, mouse NaCT (Mus musculus, UniProt Q67BT3); experiment: Transport via mouse NaCT expressed in HRPE cells; assay type: cell-based
T2 sequence (Q67BT3 1-572): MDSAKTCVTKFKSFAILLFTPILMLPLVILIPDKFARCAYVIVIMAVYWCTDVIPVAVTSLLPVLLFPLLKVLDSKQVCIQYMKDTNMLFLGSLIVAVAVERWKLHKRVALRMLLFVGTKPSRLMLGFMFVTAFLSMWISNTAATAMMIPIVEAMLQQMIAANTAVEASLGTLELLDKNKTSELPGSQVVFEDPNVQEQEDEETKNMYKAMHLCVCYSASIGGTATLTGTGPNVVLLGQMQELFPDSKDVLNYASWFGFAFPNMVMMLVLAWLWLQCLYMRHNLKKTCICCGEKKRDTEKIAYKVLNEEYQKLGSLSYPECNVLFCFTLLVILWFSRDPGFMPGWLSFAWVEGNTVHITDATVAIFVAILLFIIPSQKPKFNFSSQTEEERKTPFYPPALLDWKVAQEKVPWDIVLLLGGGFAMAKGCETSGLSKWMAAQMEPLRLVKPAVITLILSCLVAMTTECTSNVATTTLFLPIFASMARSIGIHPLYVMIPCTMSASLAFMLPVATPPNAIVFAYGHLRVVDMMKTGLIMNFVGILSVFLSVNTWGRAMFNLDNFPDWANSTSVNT

zebrafish NaCT = zebrafish NaCT (Danio rerio, UniProt A0A2R8QQN0, K78Q); experiment: Citrate uptake via zebrafish NaCT expressed in HRPE cells; assay type: cell-based; conditions: for Citrate uptake, zfNaCT, percent of corresponding control: 30 min
Sequence of zebrafish NaCT (A0A2R8QQN0 2-582 K78Q): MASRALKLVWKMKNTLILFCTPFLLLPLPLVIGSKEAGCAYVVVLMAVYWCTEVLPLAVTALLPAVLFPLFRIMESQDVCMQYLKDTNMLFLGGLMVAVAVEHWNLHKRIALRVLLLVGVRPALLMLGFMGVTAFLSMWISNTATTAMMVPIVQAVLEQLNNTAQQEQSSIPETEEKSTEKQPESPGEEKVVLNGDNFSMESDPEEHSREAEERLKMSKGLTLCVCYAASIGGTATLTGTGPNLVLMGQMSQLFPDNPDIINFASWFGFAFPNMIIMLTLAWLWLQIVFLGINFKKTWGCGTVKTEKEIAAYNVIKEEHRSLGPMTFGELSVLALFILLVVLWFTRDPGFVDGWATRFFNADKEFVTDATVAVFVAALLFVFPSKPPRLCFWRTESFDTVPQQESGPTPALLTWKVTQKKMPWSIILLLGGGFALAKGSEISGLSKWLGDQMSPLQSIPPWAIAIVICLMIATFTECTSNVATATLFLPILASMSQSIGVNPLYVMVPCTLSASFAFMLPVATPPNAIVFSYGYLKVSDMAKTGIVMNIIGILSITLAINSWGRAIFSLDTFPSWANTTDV

NaCT in HepG2 cells = molecular target: T3, NaCT in HepG2 cells (Homo sapiens, UniProt Q86YT5); experiment: Citrate uptake in HepG2 cells (constitutively expressed NaCT); assay type: cell-based
T3 construct: the effect of Li^+ on constitutively expressed NaCT in human liver cells was studied; host or cells: HepG2
T3 sequence (Q86YT5 whole entry): as the sequence (Q86YT5 whole entry) above
Procedure: Uptake measurement in human liver cell lines. The human liver cell lines (HepG2 and Huh-7) were cultured to confluency in 24-well culture plates using appropriate culture medium. The HepG2 cell line was obtained from American Type Culture Collection (Manasses, Va.). The Huh-7 cell line (Bode et al., (2002) Am. J. Physiol. 283, G1062-G1073) was provided by Dr. Barrie P. Bode (St. Louis University, St. Louis, Mo.). Uptake measurements in monolayer cultures of these cells were measured as described above for the heterologously expressed NaCTs.

[2] = cited from earlier work
ceNaCT = molecular target: T4, ceNaCT (Caenorhabditis elegans, UniProt P32739, I91S/L182M); experiment: Uptake via ceNaCT expressed in HRPE cells
T4 sequence (P32739 1-551 I91S/L182M): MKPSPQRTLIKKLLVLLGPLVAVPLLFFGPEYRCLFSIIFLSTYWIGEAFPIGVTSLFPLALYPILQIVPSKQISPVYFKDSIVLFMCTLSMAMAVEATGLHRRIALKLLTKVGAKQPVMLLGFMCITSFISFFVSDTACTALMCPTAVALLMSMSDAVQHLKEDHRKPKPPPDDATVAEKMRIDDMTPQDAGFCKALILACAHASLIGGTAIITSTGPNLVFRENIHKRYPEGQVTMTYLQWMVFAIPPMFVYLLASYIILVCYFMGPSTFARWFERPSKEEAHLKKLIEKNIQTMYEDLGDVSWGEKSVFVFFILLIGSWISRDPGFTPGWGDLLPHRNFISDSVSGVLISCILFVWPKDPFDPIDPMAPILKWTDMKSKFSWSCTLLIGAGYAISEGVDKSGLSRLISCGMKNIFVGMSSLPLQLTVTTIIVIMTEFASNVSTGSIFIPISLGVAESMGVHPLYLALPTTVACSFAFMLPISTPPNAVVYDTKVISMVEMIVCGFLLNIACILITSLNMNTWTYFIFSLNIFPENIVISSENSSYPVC

rat NaCT [3] = molecular target: T1, rat NaCT; experiment: Rat NaCT in X. laevis oocytes, voltage clamp and charge-to-substrate ratio; assay type: cell-based
drIndy = drIndy (Drosophila melanogaster, UniProt Q9VVT2)
Sequence of drIndy (Q9VVT2 19-590): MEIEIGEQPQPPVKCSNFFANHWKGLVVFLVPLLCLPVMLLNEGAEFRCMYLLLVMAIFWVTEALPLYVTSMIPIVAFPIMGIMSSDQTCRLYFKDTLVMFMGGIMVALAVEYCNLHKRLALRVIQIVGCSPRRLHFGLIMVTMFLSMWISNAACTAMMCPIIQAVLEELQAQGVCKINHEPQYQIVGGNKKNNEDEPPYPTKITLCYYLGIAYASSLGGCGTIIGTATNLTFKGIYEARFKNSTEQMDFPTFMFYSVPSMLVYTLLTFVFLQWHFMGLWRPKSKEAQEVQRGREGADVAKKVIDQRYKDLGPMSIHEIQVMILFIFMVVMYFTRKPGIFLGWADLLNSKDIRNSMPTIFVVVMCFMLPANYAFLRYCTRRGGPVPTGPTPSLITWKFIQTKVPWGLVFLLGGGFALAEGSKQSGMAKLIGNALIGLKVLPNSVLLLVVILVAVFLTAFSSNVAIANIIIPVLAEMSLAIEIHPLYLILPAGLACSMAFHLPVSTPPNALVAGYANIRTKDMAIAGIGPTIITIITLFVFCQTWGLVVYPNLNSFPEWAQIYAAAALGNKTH

[4] = substrate: O=C(O)CC(O)(CC(=O)O)C(=O)O; experiment: cells, lysate or membranes; conditions: other: pH 7.5, 37.0 °C
[5] = Li+ 2 mM, valproate 0.6 μM, carbamazepine 50 μM
[6] = [14C]-citrate 20 μM, unlabeled compound 2.5 mM
[7] = [14C]-citrate 20 μM, unlabeled compound 2.5 mM, none = 100
[8] = [3H]-succinate 0.1 μM, substrate analog 2 mM
[9] = [3H]-succinate 0.1 μM, substrate analog 2 mM, control = 100
[10] = [14C]-citrate 10 μM, substrate analog 2 mM
[11] = [14C]-citrate 10 μM, substrate analog 2 mM, control = 100
[12] = competitor 2.5 mM, [14C]citrate 15 μM

CCCC(CCC)C(=O)O [Valproate, valproate]
Citrate uptake, rNaCT, percent of corresponding control (rat NaCT [1]; [5]): 96%
Citrate uptake, hNaCT, percent of corresponding control (human NaCT; [5]): 111%
Citrate uptake, mNaCT, percent of corresponding control (mouse NaCT; [5]): 100%
Citrate uptake, zfNaCT, percent of corresponding control (zebrafish NaCT; [5]): 93.2%
Citrate uptake, HepG2 cells, percent of corresponding control (NaCT in HepG2 cells; [5]): 105%
Plasma concentrations / therapeutic plasma levels in humans ([2]; patients under treatment): 300 to 600 µM
Citrate uptake, ceNaCT, percent of corresponding control (ceNaCT; [5]): 106%

CC(O)C(=O)O (centres unmarked) [Lactate, lactate]
[^14C]Citrate uptake (cDNA-specific) (rat NaCT [1]): 89.6 ± 2.0 Pmol/10^6 cells/min
[^14C]Citrate uptake, % (rat NaCT [1]): 83%
[^14C]-Citrate Uptake (cDNA-specific) (human NaCT): 61.2 ± 6.0 pmol/10^6 cells/min
[^14C]-Citrate Uptake, % (human NaCT): 128%
[^3H]-Succinate transport (NaCT-specific) (mouse NaCT): 0.162 ± 0.008 pmol/10^6 cells/min
[^3H]-Succinate transport, % (mouse NaCT): 111%
[^14C]-Citrate transport (NaCT-specific) (mouse NaCT): 29.8 ± 3.4 pmol/10^6 cells/min
[^14C]-Citrate transport, % (mouse NaCT): 78%
Substrate-induced currents (rat NaCT [3]): no or little currents
% Control of cDNA-specific [^3H]succinate uptake (drIndy): 77%
cDNA-specific [^3H] succinate uptake (drIndy; pH 7.5): 111.2 ± 3.2 fmol/106 cells per min
Competition with [^14C]citrate for ceNaCT-mediated uptake (ceNaCT): only a minimal inhibition

O=C(O)/C=C\C(=O)O [Maleate]
[^14C]Citrate uptake (cDNA-specific) (rat NaCT [1]): 78.8 ± 1.5 Pmol/10^6 cells/min
[^14C]Citrate uptake, % (rat NaCT [1]): 73%
[^14C]-Citrate Uptake (cDNA-specific) (human NaCT): 58.0 ± 6.7 pmol/10^6 cells/min
[^14C]-Citrate Uptake, % (human NaCT): 121%
[^3H]-Succinate transport (NaCT-specific) (mouse NaCT): 0.165 ± 0.014 pmol/10^6 cells/min
[^3H]-Succinate transport, % (mouse NaCT): 113%
[^14C]-Citrate transport (NaCT-specific) (mouse NaCT): 31.2 ± 2.5 pmol/10^6 cells/min
[^14C]-Citrate transport, % (mouse NaCT): 82%
% Control of cDNA-specific [^3H]succinate uptake (drIndy): 85%
cDNA-specific [^3H] succinate uptake (drIndy; pH 7.5): 123.1 ± 7.6 fmol/106 cells per min
Competition with [^14C]citrate for ceNaCT-mediated uptake (ceNaCT): failed to compete with citrate

tunicamycin
Effect on NaCT activity in HepG2 cells (NaCT in HepG2 cells; treatment of HepG2 cells with tunicamycin): significant inhibition

O=C(O)/C=C(/CC(=O)O)C(=O)O [cis-Aconitate, cis-aconitate]
[^14C]-Citrate Uptake (cDNA-specific) (human NaCT; [6]): 55.5 ± 3.3 pmol/10^6 cells/min
[^14C]-Citrate Uptake, % (human NaCT; [7]): 116%
[^3H]-Succinate transport (NaCT-specific) (mouse NaCT; [8]): 0.062 ± 0.005 pmol/10^6 cells/min
[^3H]-Succinate transport, % (mouse NaCT; [9]): 43%
[^14C]-Citrate transport (NaCT-specific) (mouse NaCT; [10]): 18.1 ± 1.8 pmol/10^6 cells/min
[^14C]-Citrate transport, % (mouse NaCT; [11]): 47%
Substrate-induced currents as % of citrate-induced currents (rat NaCT [3]; substrate 0.5 mM): approximately 10%
Competition with [^14C]citrate for ceNaCT-mediated uptake (ceNaCT; [12]): did not compete with [^14C]citrate as effectively as unlabelled citrate

O=C(O)CC(O)C(=O)O (centres unmarked) [Malate, malate]
[^14C]Citrate uptake (cDNA-specific) (rat NaCT [1]; [14C]citrate 14 μM, unlabeled compound 2.5 mM): 7.8 ± 0.1 Pmol/10^6 cells/min
[^14C]Citrate uptake, % (rat NaCT [1]; [14C]citrate 14 μM, unlabeled compound 2.5 mM, none = 100): 7%
IC50 (human NaCT): 3.12 ± 1.34 mM
[^14C]-Citrate Uptake (cDNA-specific) (human NaCT; [6]): 29.5 ± 1.9 pmol/10^6 cells/min
[^14C]-Citrate Uptake, % (human NaCT; [7]): 62%
[^3H]-Succinate transport (NaCT-specific) (mouse NaCT; [8]): 0.004 ± 0.001 pmol/10^6 cells/min
[^3H]-Succinate transport, % (mouse NaCT; [9]): 3%
[^14C]-Citrate transport (NaCT-specific) (mouse NaCT; [10]): 0.2 ± 0.1 pmol/10^6 cells/min
[^14C]-Citrate transport, % (mouse NaCT; [11]): 1%
% Control of cDNA-specific [^3H]succinate uptake (drIndy; [3H]succinate 40 nM, inhibitor 2.5 mM): 8%
cDNA-specific [^3H] succinate uptake (drIndy; [3H]succinate 40 nM, inhibitor 2.5 mM, NaCl buffer pH 7.5): 6.8 ± 2.7 fmol/106 cells per min
Competition with [^14C]citrate for ceNaCT-mediated uptake (ceNaCT; [12]): inhibited markedly

NC(=O)N1c2ccccc2C=Cc2ccccc21 [Carbamazepine, carbamazepine]
Citrate uptake, rNaCT (rat NaCT [1]; [5]): 133.5 ± 0.7 pmol/10^6 cells/min
Citrate uptake, rNaCT, percent of corresponding control (rat NaCT [1]; [5]): 90%
Citrate uptake, hNaCT (human NaCT; [5]): 54.1 ± 2.6 pmol/10^6 cells/min
Citrate uptake, hNaCT, percent of corresponding control (human NaCT; [5]): 105%
Citrate uptake, mNaCT (mouse NaCT; [5]): 43.7 ± 2.0 pmol/10^6 cells/min
Citrate uptake, mNaCT, percent of corresponding control (mouse NaCT; [5]): 103%
Citrate uptake, zfNaCT (zebrafish NaCT): 441.0 ± 2.7 (91) pmol/10^6 cells/min
Citrate uptake, zfNaCT, percent of corresponding control (zebrafish NaCT; hrpe cells): 441.0 ± 2.7 (91) percent
Citrate uptake, HepG2 cells (NaCT in HepG2 cells; [5]): 10.0 ± 0.2 pmol/min/mg protein
Citrate uptake, HepG2 cells, percent of corresponding control (NaCT in HepG2 cells; [5]): 106%
Therapeutic plasma levels in humans ([2]; human, in vivo): 20 to 50 µM
Citrate uptake, ceNaCT (ceNaCT; [5]): 45.1 ± 1.5 pmol/10^6 cells/min
Citrate uptake, ceNaCT, percent of corresponding control (ceNaCT; [5]): 104%

B1: ceNaCT (Caenorhabditis elegans; I91S/L182M) (protein)
chain: T4 sequence (P32739 1-551 I91S/L182M)
Km [4]: 76 ± 14 µM
